Patent US20160022683A1, “COMBINATIONS OF BRUTON'S TYROSINE KINASE INHIBITORS AND CYP3A4 INHIBITORS” (PHARMACYCLICS LLC, priority 2013, published 2016)
Values joined by “and” are separate entries in the source; they are usually repeats but may differ in a detail not shown here. Equal entries are not always repeated. Where two headings read alike, the source gives them in different places.

Tests used:
[1] = healthy subjects
clinical [2] = settings: male, human, plasma, oral, 120 mg
clinical [3] = settings: human, in vivo, oral, spread in brackets; for AUC(0-inf): AUCinf
clinical [4] = settings: human, oral, 560 mg
[5] = for DN*AUC0-24 / DN*AUClast / DN*Cmax / DN* AUC∞: dose normalized
[6] = 560 mg, Ibrutinib 560 mg alone, fasted, n=8
[7] = 560 mg, Ibrutinib 560 mg alone, fed, n=8
[8] = Ibrutinib 140 mg + grapefruit juice, fed, n=8
[9] = Ibrutinib in plasma, Day 1, 120 mg Ibrutinib alone, geom. mean
[10] = Ibrutinib in plasma, Day 1, 120 mg Ibrutinib alone, mean
[11] = Ibrutinib in plasma, Day 1, 120 mg Ibrutinib alone, median
[12] = Ibrutinib in plasma, Day 1, 120 mg Ibrutinib alone, n=12, geom. mean
[13] = Ibrutinib in plasma, Day 1, 120 mg Ibrutinib alone, n=12, mean
[14] = Ibrutinib in plasma, Day 1, 120 mg Ibrutinib alone, not dose normalized, mean
[15] = Ibrutinib in plasma, Day 7, 40 mg Ibrutinib + ketoconazole, geom. mean
[16] = Ibrutinib in plasma, Day 7, 40 mg Ibrutinib + ketoconazole, mean
[17] = Ibrutinib in plasma, Day 7, 40 mg Ibrutinib + ketoconazole, median
[18] = PCI-45227 in plasma, Day 1, 120 mg Ibrutinib alone, geom. mean
[19] = PCI-45227 in plasma, Day 1, 120 mg Ibrutinib alone, mean
[20] = PCI-45227 in plasma, Day 1, 120 mg Ibrutinib alone, median
[21] = PCI-45227 in plasma, Day 1, 120 mg Ibrutinib alone, not dose normalized, mean
[22] = PCI-45227 in plasma, Day 7, 40 mg Ibrutinib + ketoconazole, geom. mean
[23] = PCI-45227 in plasma, Day 7, 40 mg Ibrutinib + ketoconazole, mean
[24] = PCI-45227 in plasma, Day 7, 40 mg Ibrutinib + ketoconazole, median

C=CC(=O)N1CCC[C@@H](n2nc(-c3ccc(Oc4ccccc4)cc3)c3c(N)ncnc32)C1 [Ibrutinib, 1-((R)-3-(4-amino-3-(4-phenoxyphenyl)-1H-pyrazolo[3,4-d]pyrimidin-1-yl)-piperidin-1-yl)prop-2-en-1-one]
Ibrutinib systemic exposure when dosed concomitantly with rifampin [1]: significantly affected
AUC(0-inf) (clinical [2]): 22.4 ng·h/mL
MRT (clinical [2]): 9.13 h
AUC(0-t) (clinical [3]; 560 mg, AUC0-24 h, Ibrutinib 560 mg alone, fasted, n=8): 229 ng·h/mL
AUC(0-t) (clinical [3]; 560 mg, AUC0-24 h, Ibrutinib 560 mg alone, fed, n=7): 544 ng·h/mL
AUC(0-inf) (clinical [3]; [6]): 368 ng·h/mL
AUC(0-inf) (clinical [3]; [7]): 659 ng·h/mL
AUC(0-t) (clinical [3]; 560 mg, AUClast, Ibrutinib 560 mg alone, fasted, n=8): 289 ng·h/mL
AUC(0-t) (clinical [3]; 560 mg, AUClast, Ibrutinib 560 mg alone, fed, n=8): 606 ng·h/mL
Cmax (clinical [3]; [6]): 245 ng/mL
Cmax (clinical [3]; [7]): 128 ng/mL
AUC(0-t) (clinical [3]; AUC0-24 h, Ibrutinib 140 mg + grapefruit juice, fed, n=7): 339 ng·h/mL
AUC(0-inf) (clinical [3]; [8]): 334 ng·h/mL
AUC(0-t) (clinical [3]; AUClast, Ibrutinib 140 mg + grapefruit juice, fed, n=8): 325 ng·h/mL
Cmax (clinical [3]; [8]): 125 ng/mL
AUC(0-t) (clinical [4]; blood): 259 ng·h/mL
Cmax (clinical [4]; blood): 42 ng/mL
AUC(0-inf) (clinical [4]; in vivo): 397 ng·h/mL
DN*AUC0-24 [5, 9]: 18.7 ng·h/mL
DN*AUClast [5, 9]: 20.4 ng·h/mL
DN*Cmax [5, 9]: 3.33 ng/mL
DN*AUC0-24 [5, 10]: 21.3 ng·h/mL
DN*AUClast [5, 10]: 23.8 ng·h/mL
DN*Cmax [5, 10]: 3.92 ng/mL
DN*AUC0-24 [5, 11]: 18.5 ng·h/mL
DN*AUClast [5, 11]: 19.2 ng·h/mL
DN*Cmax [5, 11]: 3.57 ng/mL
DN* AUC∞ [5, 12]: 23.7 ng·h/mL
DN* AUC∞ [5, 13]: 28.1 ng·h/mL
tlast [5, 9]: 30.93 h
tlast [5, 10]: 34.00 h
tlast [5, 11]: 24.01 h
AUMC∞ [5, 12]: 576 h · h · ng/mL
MRT [5, 12]: 8.11 h
AUMC∞ [5, 13]: 857 h · h · ng/mL
MRT [5, 13]: 8.93 h
AUMC∞ ([5]; Ibrutinib in plasma, Day 1, 120 mg Ibrutinib alone, n=12, median): 693 h · h · ng/mL
AUC0-24 [5, 14]: 63.8 ng·h/mL
Cmax [5, 14]: 11.8 ng/mL
AUC0-24 [5, 15]: 464 ng·h/mL
AUClast [5, 15]: 488 ng·h/mL
AUC∞ [5, 15]: 491 ng·h/mL
AUMC∞ [5, 15]: 3235 h · h · ng/mL
Cmax [5, 15]: 95.2 ng/mL
MRT [5, 15]: 6.6 h
tlast [5, 15]: 40.51 h
AUC0-24 [5, 16]: 510 ng·h/mL
AUClast [5, 16]: 533 ng·h/mL
AUC∞ [5, 16]: 536 ng·h/mL
AUMC∞ [5, 16]: 3504 h · h · ng/mL
Cmax [5, 16]: 108 ng/mL
MRT [5, 16]: 6.8 h
tlast [5, 16]: 42.68 h
AUClast [5, 17]: 559 ng·h/mL
AUMC∞ [5, 17]: 3635 h · h · ng/mL
tlast [5, 17]: 48.00 h
Ibrutinib systemic exposure when dosed concomitantly with ketoconazole ([5]; healthy subjects): significantly affected

Nc1ncnc2c1c(-c1ccc(Oc3ccccc3)cc1)nn2[C@@H]1CCCN(C(=O)C(O)CO)C1 (some centres unmarked) [PCI-45227]
DN* AUC∞ [5, 18]: 98.2 ng·h/mL
DN*AUC0-24 [5, 18]: 76.6 ng·h/mL
DN*AUClast [5, 18]: 96.4 ng·h/mL
DN*Cmax [5, 18]: 8.81 ng/mL
DN* AUC∞ [5, 19]: 103 ng·h/mL
DN*AUC0-24 [5, 19]: 82.2 ng·h/mL
DN*AUClast [5, 19]: 101 ng·h/mL
DN*Cmax [5, 19]: 9.70 ng/mL
DN* AUC∞ [5, 20]: 101 ng·h/mL
DN*AUC0-24 [5, 20]: 81.3 ng·h/mL
DN*AUClast [5, 20]: 100 ng·h/mL
DN*Cmax [5, 20]: 9.45 ng/mL
AUMC∞ [5, 18]: 4122 h · h · ng/mL
CL/F [5, 18]: 407 L/h
MRT [5, 18]: 14.0 h
T½ term [5, 18]: 11.2 h
tlast [5, 18]: 65.80 h
tmax [5, 18]: 2.25 h
λz [5, 18]: 0.0619 h⁻¹
AUMC∞ [5, 19]: 4297 h · h · ng/mL
CL/F [5, 19]: 428 L/h
MRT [5, 19]: 14.3 h
T½ term [5, 19]: 11.41 h
tlast [5, 19]: 66.7 h and 66.67 h
tmax [5, 19]: 2.42 h
λz [5, 19]: 0.0630 h⁻¹
AUMC∞ [5, 20]: 3979 h · h · ng/mL
CL/F [5, 20]: 395 L/h
MRT [5, 20]: 13.6 h
T½ term [5, 20]: 10.74 h
tlast [5, 20]: 72.00 h
tmax [5, 20]: 2.00 h
λz [5, 20]: 0.0645 h⁻¹
AUC0-24 [5, 21]: 247 ng·h/mL
Cmax [5, 21]: 29.1 ng/mL
AUC0-24 [5, 22]: 53.4 ng·h/mL
AUClast [5, 22]: 82.7 ng·h/mL
AUC∞ [5, 22]: 89.4 ng·h/mL
AUMC∞ [5, 22]: 2216 h · h · ng/mL
CL/F [5, 22]: 448 L/h
Cmax [5, 22]: 3.63 ng/mL
MRT [5, 22]: 24.8 h
T½ term [5, 22]: 17.49 h
tlast [5, 22]: 67.30 h
tmax [5, 22]: 3.77 h
λz [5, 22]: 0.0396 h⁻¹
AUC0-24 [5, 23]: 54.5 ng·h/mL
AUClast [5, 23]: 85.2 ng·h/mL
AUC∞ [5, 23]: 92.2 ng·h/mL
AUMC∞ [5, 23]: 2416 h · h · ng/mL
CL/F [5, 23]: 461 L/h
Cmax [5, 23]: 3.71 ng/mL
MRT [5, 23]: 25.4 h
T½ term [5, 23]: 17.99 h
tlast [5, 23]: 68.01 h
tmax [5, 23]: 3.95 h
λz [5, 23]: 0.0407 h⁻¹
AUC0-24 [5, 24]: 53.8 ng·h/mL
AUClast [5, 24]: 82.7 ng·h/mL
AUC∞ [5, 24]: 89.6 ng·h/mL
AUMC∞ [5, 24]: 2177 h · h · ng/mL
CL/F [5, 24]: 447 L/h
Cmax [5, 24]: 3.74 ng/mL
MRT [5, 24]: 24.8 h
T½ term [5, 24]: 16.61 h
tlast [5, 24]: 72.00 h
tmax [5, 24]: 4.00 h
λz [5, 24]: 0.0417 h⁻¹
